# Columns and labels:
# [1] = tested on: A. fumigatus CFBRC3 biofilm; assay: A. fumigatus biofilm assay, clinical source CFBRC3; assay type: cell-based, Aspergillus fumigatus; conditions: biofilm from clinical source CFBRC3
# Procedure: (§1) A. fumigatus Af293 was grown on SDA in 100 ml cell culture flasks at 37° C. for 3-4 days. Conidia were harvested by flooding the surface of the agar plates with 5 ml PBS (Oxoid) containing 0.025% (v/v) Tween 20 and gently moving the liquid over the surface of the fungal lawn. The conidial suspension was transferred into a 25 ml sterile container and conidia were counted using a Neubauer haemocytometer and light microscope. Conidia were adjusted to the required concentration in RPMI 1640 (Sigma) buffered to pH 7.0 with 0.165 M MOPS immediately prior to biofilm formation analysis.
# (§2) To assess biofilm formation, counted A. fumigatus spores (1×10^5) in MOPS buffered RPMI 1640 were inoculated into 24- and 96-well plates and grown overnight in the presence of 100 μM HHQ, PQS and the test compounds. After 24 hrs, the media was removed and the biofilm washed twice with distilled water after which 0.1% crystal violet (CV) was added to each well and allowed to stand for 1 hr at room temperature. The crystal violet was removed and all wells washed in a water bath by inversion. Ethanol was added to each well to solubilise biofilms after which samples were read on a spectrophotometer at Abs595 nm.
# (§3) The above experiments were carried out using biofilms grown from laboratory sources of A. fumigatus. The experiments were repeated to test some compounds against biofilms grown from three different clinical sources of A. fumigatus (CFBRC1, CFBRC2 and CFBRC3. The results are shown in table 8: […]
# [2] = tested on: A. fumigatus CFBRC2 biofilm; assay: A. fumigatus biofilm assay, clinical source CFBRC2; assay type: cell-based, Aspergillus fumigatus; conditions: biofilm from clinical source CFBRC2
# Procedure: as §1, §2, §3
# [3] = tested on: A. fumigatus CFBRC1 biofilm; assay: A. fumigatus biofilm assay, clinical source CFBRC1; assay type: cell-based, Aspergillus fumigatus; conditions: biofilm from clinical source CFBRC1
# Procedure: as §1, §2, §3
# [4] = tested on: A. fumigatus Af293 biofilm; assay: A. fumigatus biofilm assay (crystal violet); assay type: cell-based, Aspergillus fumigatus; conditions: for effectiveness against fungal biofilms formed by Aspergillus fumigatus (in words): summary statement
# Procedure: A. fumigatus Af293 was routinely grown on Sabouraud dextrose agar (SDA) in 100 ml cell culture flasks at 37° C. for 3-4 days until a lawn of fungal growth was observed.
# as §1, §2
# [5] = tested on: pqsA-lacZ promoter fusion; assay: Promoter fusion based expression analysis (pqsA-lacZ, Miller units); assay type: cell-based, P. aeruginosa; conditions: PAO1 pqsA-pqsA-lacZ strain, 100 μM, overnight; methanol control 12287
# Procedure: P. aeruginosa strains, PAO1 and pqsA mutant, containing the chromosomally inserted pqsA-lacZ promoter fusion on plasmid pUC18-mini-Tn7, were sub-cultured from glycerol stocks onto LB agar plates, supplemented with Carbenicillin (200 μg/ml) and X-gal (40 μg/ml), and incubated at 37° C. overnight. Single colonies were inoculated into LB broth (20 ml), supplemented with Carbenicillin (200 μg/ml), and incubated at 37° C., shaking at 180 rpm overnight. For subsequent experiments, the OD600 nm was recorded and a starting OD600 nm of 0.02 was inoculated into fresh LB broth, supplemented with Carbenicillin (200 μg/ml) and incubated at 37° C., shaking at 180 rpm.
# Promoter fusion analyses were performed in a 96-well format. Briefly, overnight cultures of wild-type PAO1 pqsA-lacZ (pLP0996) and mutant strain PAO1 pqsA^− pqsA-LacZ were diluted to OD600 nm=0.02 in LB. Test compounds at 100 μM final concentration were added, mixed, aliquoted into 96 well plates and incubated overnight at 37° C. with shaking. The next day, OD600 nm values were recorded in a plate reader. Aliquots of cells (0.02 ml) were permeabilised [100 mM dibasic sodium phosphate (Na2HPO4), 20 mM KCl, 2 mM MgSO4, 0.8 mg/mL CTAB (hexadecyltrimethylammonium bromide), 0.4 mg/mL sodium deoxycholate, 5.4 μL/mL beta-mercaptoethanol] and added to substrate solution [60 mM Na2HPO4, 40 mM NaH2PO4, 1 mg/mL o-nitrophenyl-β-D-Galactoside (ONPG), 2.7 μL/mL β-mercaptoethanol]. The kinetics of colour development was monitored and the reactions were stopped using 1M NaCO3. OD420 nm were recorded as above. Miller units were calculated using the following equation; 1000×[OD420 nm/(OD600 nm)×0.02 ml×reaction time (mins)].
# The phenazine production levels and Miller units in the PAO1 pqsA-pqsA-lacZ strain are detailed in table 5.
# The virulence of compounds B2, C13 and C15 towards P. aeruginosa was assessed using an analogous method.
# DU145 = assay: LDH release cytotoxicity, DU145; assay type: cell-based; conditions: DU145 cell line; percentage of 0.1% Triton
# Procedure: Lactate dehydrogenase (LDH) release from IB3 lung epithelial cells was assayed as a measure of cytotoxicity using an LDH colorimetric kit (Roche) according to manufacturers' instructions. Briefly, IB3-1 cells were seeded onto 96 well plates and treated with methanol (control) and test compounds (100 μM). Following 16 hr incubation at 37° C. and 5% CO2, supernatants were removed and added to catalyst reaction mixture in a fresh plate and further incubated at 37° C. and 5% CO2 for 30 mins to allow for colour development. After this period, the plate was analysed on an ELISA plate reader at OD490 nm. Cytotoxicity was expressed as a percentage of cells treated with 0.1% (v/v) Triton (100% cytotoxicity). The results are detailed in table 3:
# The above experiments were repeated, testing some compounds against further cell lines (A549, DU145 and HeLa).
smiles,measurement,setting,value
CCCCCCCc1nc2ccccc2c(=O)n1N [Compound C2],"Relative absorbance compared to MeOH (=1), Mean",[1],0.292
same,"Relative absorbance compared to MeOH (=1), Mean",[2],0.304
same,"Relative absorbance compared to MeOH (=1), Mean",[3],0.310
same,"Relative absorbance at 595 nm compared to methanol control, Mean","[4]; A. fumigatus Af293 biofilm, 100 μM, 24 hrs, crystal violet",0.37
same,effectiveness against fungal biofilms formed by Aspergillus fumigatus (in words),[4],effective
same,"Miller Units, Mean",[5],16027 Miller Units
CCCCCCCc1cc(=O)c2cc(Cl)ccc2[nH]1 [Compound C4],"Cytotoxicity, Mean (LDH release)",DU145,24.42%
same,effectiveness against fungal biofilms formed by Aspergillus fumigatus (in words),[4],effective
same,"Miller Units, Mean",[5],35489 Miller Units
CCCCCCCc1cc(=O)c2cccc(Cl)c2[nH]1 [Compound C5],"Relative absorbance compared to MeOH (=1), Mean",[1],0.483
same,"Relative absorbance compared to MeOH (=1), Mean",[2],0.359
same,"Relative absorbance compared to MeOH (=1), Mean",[3],0.297
same,"Miller Units, Mean",[5],11940 Miller Units

# Reference: US10882826B2, “Quinolinone or quinazolinone comprising antibiofilm compositions, compounds and methods and uses relating thereto” (University College Cork—National University of Ireland, priority 2015, dated 2021)
